Data as given in ChEMBL document CHEMBL1154345, “Discovery of tricyclic 5,6-dihydro-1H-pyridin-2-ones as novel, potent, and orally bioavailable inhibitors of HCV NS5B polymerase” (Bioorg Med Chem Lett, 2009).

How the values were obtained:
[1] = tested on: Hepatitis C virus; experiment: microbe, parasite or virus in culture; type: functional, organism-based, Hepacivirus hominis, subtype 1a, Huh-lunet; settings: Hepatitis C virus, subtype 1a, Huh-lunet, 96 h
Description: Antiviral activity against HCV-1a infected in human Huh-lunet cells after 4 days by luciferase based replicon assay

[2] = tested on: Hepatitis C virus; experiment: microbe, parasite or virus in culture; type: functional, organism-based, Hepacivirus hominis, genotype 1b, Huh-luc/neo-ET; settings: Hepatitis C virus, genotype 1b, Huh-luc/neo-ET, 72 h
Description: Antiviral activity against HCV-1b infected human Huh-luc/neo-ET replicon cells after 72 hrs by luciferase based replicon assay

[3] = in vitro; settings: human, t1/2
[4] = in vitro; settings: human
Description: Metabolic stability in human liver microsomes assessed as compound remaining after 60 mins at 1 uM

[5] = Cytotoxicity against human HuH7 cells assessed as GAPDH release; type: cell-based, Huh-7
[6] = Clearance in cynomolgus monkey at 1 mg/kg, iv; type: ADME, organism-based, Macaca fascicularis; set-up: dose 1 mg/kg, route intravenous; settings: in vivo
[7] = in vitro; settings: rhesus monkey
Description: Metabolic stability in monkey liver microsomes assessed as half life at 5 uM

[8] = tested on: Cynomolgus monkey; settings: in vivo, po, 1 mg/kg
[9] = tested on: Cynomolgus monkey; settings: in vivo, iv, 1 mg/kg
[10] = Oral bioavailability in cynomolgus monkey at 1 mg/kg; type: ADME, organism-based, Macaca fascicularis; settings: in vivo
[11] = physchem; settings: aqueous medium, pH 7.5
Description: Aqueous solubility at pH 7.5

[12] = in vitro; settings: rhesus monkey, microsomes, Stability
Description: Metabolic stability in monkey liver microsomes assessed as compound remaining after 60 mins at 5 uM

Row | Compound | EC50 [1] [nM] | EC50 [2] [nM] | half-life at 1 µM ([3]; microsomes) [h] | remaining at 1 h, 1 µM ([4]; microsomes) [%] | half-life at 1 µM ([3]; liver microsomes) [h] | remaining at 1 h, 1 µM ([4]; liver microsomes) [%] | further results
1 | COc1cc(CN2C(=O)C(C3=NS(=O)(=O)c4cc(NS(C)(=O)=O)ccc4N3)=C(O)[C@@H]3C4CCC(CC4)[C@@H]32)ccc1F | 21 | 2 |  |  | > 1 | 67 | 
2 | CS(=O)(=O)Nc1ccc2c(c1)S(=O)(=O)N=C(C1=C(O)[C@@H]3C4CCC(CC4)[C@@H]3N(Cc3ccc(F)c(Cl)c3)C1=O)N2 | 19 | 2 |  |  | > 1 | 100 | 
3 | Cc1cc(CN2C(=O)C(C3=NS(=O)(=O)c4cc(NS(C)(=O)=O)ccc4N3)=C(O)[C@@H]3C4CCC(CC4)[C@@H]32)ccc1F | 16 | 2 |  |  | > 1 | 81 | 
4 | COc1cccc(CN2C(=O)C(C3=NS(=O)(=O)c4cc(NS(C)(=O)=O)ccc4N3)=C(O)[C@@H]3C4CCC(CC4)[C@@H]32)c1 | 270 | 5 |  |  | > 1 | 50 | 
5 | CS(=O)(=O)Nc1ccc2c(c1)S(=O)(=O)N=C(C1=C(O)[C@@H]3C4CCC(CC4)[C@@H]3N(Cc3ccccc3Cl)C1=O)N2 | 660 | 17 |  |  | > 1 | 100 | 
6 | CS(=O)(=O)Nc1ccc2c(c1)S(=O)(=O)N=C(C1=C(O)[C@@H]3C4CCC(CC4)[C@@H]3N(Cc3cccc(F)c3)C1=O)N2 | 98 | 4 | > 1 | 88 |  |  | 
7 | CS(=O)(=O)Nc1ccc2c(c1)S(=O)(=O)N=C(C1=C(O)[C@@H]3C4CCC(CC4)[C@@H]3N(Cc3ccc(Cl)cc3)C1=O)N2 | 250 | 31 |  |  | > 1 | 100 | 
8 | Cc1cc(CN2C(=O)C(C3=Nc4ccc(NS(C)(=O)=O)cc4S(=O)(=O)N3)=C(O)[C@@H]3[C@@H]4CC[C@@H](C4)[C@@H]32)ccc1F | 87 | 9 |  |  | > 1 | 65 | 
9 | CS(=O)(=O)Nc1ccc2c(c1)S(=O)(=O)NC(C1=C(O)[C@@H]3[C@@H]4CC[C@@H](C4)[C@@H]3N(Cc3ccc(F)c(F)c3)C1=O)=N2 | 110 | 13 |  |  | > 1 | 97 | 
10 | CS(=O)(=O)Nc1ccc2c(c1)S(=O)(=O)NC(C1=C(O)[C@@H]3[C@@H]4CC[C@@H](C4)[C@@H]3N(Cc3ccccc3)C1=O)=N2 | 340 | 10 |  |  | > 1 | 90 | 
11 | CS(=O)(=O)Nc1ccc2c(c1)S(=O)(=O)NC(C1=C(O)[C@@H]3[C@@H]4CC[C@@H](C4)[C@@H]3N(Cc3cccc(F)c3)C1=O)=N2 | 290 | 22 | > 1 | 96 |  |  | 
12 | CS(=O)(=O)Nc1ccc2c(c1)S(=O)(=O)N=C(C1=C(O)[C@@H]3C4CCC(CC4)[C@@H]3N(Cc3ccc(F)cc3)C1=O)N2 | 6 | 0.8 | > 1 | 86 |  |  | CC50 [5]: > 1000 nM
13 | CS(=O)(=O)Nc1ccc2c(c1)S(=O)(=O)N=C(C1=C(O)[C@@H]3C4CCC(CC4)[C@@H]3N(CC3CCCCC3)C1=O)N2 | 55 | 11 | 0.833 |  |  |  | 
14 | CS(=O)(=O)Nc1ccc2c(c1)S(=O)(=O)N=C(C1=C(O)[C@@H]3C4CCC(CC4)[C@@H]3N(CC(F)(F)F)C1=O)N2 | 60 | 4 | 0.1 |  |  |  | 
15 | CS(=O)(=O)Nc1ccc2c(c1)S(=O)(=O)N=C(C1=C(O)[C@@H]3C4CCC(CC4)[C@@H]3N(Cc3cccs3)C1=O)N2 | 120 | 6 |  |  | 0.85 |  | 
16 | CS(=O)(=O)Nc1ccc2c(c1)S(=O)(=O)N=C(C1=C(O)[C@@H]3C4CCC(CC4)[C@@H]3N(Cc3ccccc3)C1=O)N2 | 55 | 1 |  |  | > 1 | 82 | 
17 | CS(=O)(=O)Nc1ccc2c(c1)S(=O)(=O)NC(C1=C(O)[C@@H]3CCC[C@@H]3N(Cc3ccc(F)cc3)C1=O)=N2 | 550 | 23 | > 1 | 85 |  |  | solubility [11]: > 100 µM; remaining at 1 h, 5 µM [12]: 100%; half-life at 5 µM ([7]; microsomes): > 1 h; CC50 [5]: > 100000 nM
18 | CS(=O)(=O)Nc1ccc2c(c1)S(=O)(=O)N=C(C1=C(O)C3CC=CCC3N(Cc3ccc(F)cc3)C1=O)N2 (racemic) | 81 | 7 |  |  | > 1 | 87 | CC50 [5]: > 1000 nM

Now from value to molecule, other results behind:

Row | EC50 [1] [nM] | EC50 [2] [nM] | half-life at 1 µM ([3]; microsomes) [h] | remaining at 1 h, 1 µM ([4]; microsomes) [%] | half-life at 1 µM ([3]; liver microsomes) [h] | remaining at 1 h, 1 µM ([4]; liver microsomes) [%] | Compound | further results
19 | 65 | 7 | > 1 | 85 |  |  | CS(=O)(=O)Nc1ccc2c(c1)S(=O)(=O)N=C(C1=C(O)[C@@H]3[C@@H]4CC[C@@H](C4)[C@@H]3N(Cc3ccc(F)cc3)C1=O)N2 | CC50 [5]: > 1000 nM
20 | 150 | 8 |  |  | > 1 | 100 | CS(=O)(=O)Nc1ccc2c(c1)S(=O)(=O)N=C(C1=C(O)[C@@H]3C4CCC(CC4)[C@@H]3N(Cc3ccc(F)c(F)c3F)C1=O)N2 | 
21 | 23 | 2 |  |  | > 1 | 81 | CS(=O)(=O)Nc1ccc2c(c1)S(=O)(=O)N=C(C1=C(O)[C@@H]3C4CCC(CC4)[C@@H]3N(Cc3ccc(F)c(F)c3)C1=O)N2 | 
22 | 280 | 2 |  |  | > 1 | 100 | CS(=O)(=O)Nc1ccc2c(c1)S(=O)(=O)N=C(C1=C(O)[C@@H]3C4CCC(CC4)[C@@H]3N(Cc3ccc(F)cc3F)C1=O)N2 | 
23 | 25 | 1 |  |  | > 1 | 100 | CS(=O)(=O)Nc1ccc2c(c1)S(=O)(=O)N=C(C1=C(O)[C@@H]3C4CCC(CC4)[C@@H]3N(Cc3ccc(F)cc3Cl)C1=O)N2 | 
24 | 200 | 4 |  |  | > 1 | 100 | CS(=O)(=O)Nc1ccc2c(c1)S(=O)(=O)N=C(C1=C(O)[C@@H]3[C@@H]4CC[C@@H](C4)[C@@H]3N(Cc3ccc(F)c(Cl)c3)C1=O)N2 | 
25 | 260 | 15 |  |  | > 1 | 100 | CS(=O)(=O)Nc1ccc2c(c1)S(=O)(=O)N=C(C1=C(O)[C@@H]3[C@H]4CC[C@H](C4)[C@@H]3N(Cc3ccc(F)c(F)c3F)C1=O)N2 | 
26 | 32 | 10 |  |  | > 1 | 87 | CS(=O)(=O)Nc1ccc2c(c1)S(=O)(=O)N=C(C1=C(O)[C@@H]3[C@H]4CC[C@H](C4)[C@@H]3N(Cc3ccc(F)c(Cl)c3)C1=O)N2 | 
27 | 46 | 10 | > 1 | 66 |  |  | COc1cc(CN2C(=O)C(C3=NS(=O)(=O)c4cc(NS(C)(=O)=O)ccc4N3)=C(O)[C@@H]3[C@H]4CC[C@H](C4)[C@@H]32)ccc1F | 
28 | 290 | 10 | > 1 | 100 |  |  | CS(=O)(=O)Nc1ccc2c(c1)S(=O)(=O)N=C(C1=C(O)[C@@H]3[C@H]4CC[C@H](C4)[C@@H]3N(Cc3ccc(F)cc3F)C1=O)N2 | 
29 | 34 | 6 |  |  | > 1 | 70 | Cc1cc(CN2C(=O)C(C3=NS(=O)(=O)c4cc(NS(C)(=O)=O)ccc4N3)=C(O)[C@@H]3[C@H]4CC[C@H](C4)[C@@H]32)ccc1F | clearance [6]: 0.67 mL/min/kg; half-life at 5 µM ([7]; liver microsomes): 0.817 h; AUC [8]: 8780 ng·h/mL; AUC [9]: 25000 ng·h/mL; bioavailability [10]: 35%
30 | 33 | 5 | > 1 | 98 |  |  | CS(=O)(=O)Nc1ccc2c(c1)S(=O)(=O)N=C(C1=C(O)[C@@H]3[C@H]4CC[C@H](C4)[C@@H]3N(Cc3ccc(F)cc3Cl)C1=O)N2 | 
31 | 330 | 10 | > 1 | 85 |  |  | CS(=O)(=O)Nc1ccc2c(c1)S(=O)(=O)N=C(C1=C(O)[C@@H]3[C@H]4CC[C@H](C4)[C@@H]3N(Cc3cccc(F)c3)C1=O)N2 | 
32 | 760 | 203 | > 1 | 84 |  |  | CS(=O)(=O)Nc1ccc2c(c1)S(=O)(=O)N=C(C1=C(O)[C@@H]3[C@H]4CC[C@H](C4)[C@@H]3N(Cc3ccc(Cl)cc3)C1=O)N2 | 
33 | 66 | 18 | > 1 | 81 |  |  | CS(=O)(=O)Nc1ccc2c(c1)S(=O)(=O)N=C(C1=C(O)[C@@H]3[C@H]4CC[C@H](C4)[C@@H]3N(Cc3cccs3)C1=O)N2 | 
34 | 820 | 27 | > 1 | 63 |  |  | CS(=O)(=O)Nc1ccc2c(c1)S(=O)(=O)N=C(C1=C(O)[C@@H]3[C@@H]4CC[C@@H](C4)[C@@H]3N(Cc3cccs3)C1=O)N2 | 
35 | 18 | 3 | > 1 | 75 |  |  | CS(=O)(=O)Nc1ccc2c(c1)S(=O)(=O)N=C(C1=C(O)[C@@H]3[C@H]4CC[C@H](C4)[C@@H]3N(Cc3ccc(F)cc3)C1=O)N2 [SETROBUVIR] | remaining at 1 h, 5 µM [12]: 98%; clearance [6]: 0.18 mL/min/kg; half-life at 5 µM ([7]; microsomes): > 1 h; CC50 [5]: > 100000 nM; AUC [8]: 49400 ng·h/mL; AUC [9]: 94900 ng·h/mL; bioavailability [10]: 52%
